The text below walks through data of patent US20240358684A1, “METHOD FOR ENHANCING INNATE IMMUNE RESPONSE” (Kyoto University, priority 2021, published 2024).

The target of assay [1] is T1, CLK1 (Homo sapiens, UniProt P49759).
T1 construct: Enzyme activity was measured with off-chip mobility shift assay using purified CLK protein
The assay can be described thus: Inhibition confirmation test for CLK (off-chip mobility shift assay). Particulars: at 1 μM; read-out: CLK1 inhibitory activity. It counts as biochemical. As for the experimental part: Enzyme activity was measured with off-chip mobility shift assay using purified CLK protein. […] The enzyme reaction was performed at room temperature for 1 hour, and the reaction was terminated by adding QuickScout Screening Assist MSA (Carna Biosciences, Inc.). A substrate peptide and a phosphorylated peptide in the enzyme reaction solution were separated and quantified using the LabChip system (Perkin-Elmer, Waltham, MA, USA), and inhibition of CLK was evaluated by calculating a product ratio using the following formula, the substrate peptide peak height (S), and the phosphorylated peptide peak height (P).
(§1) (P/(P+S)) • P: product-derived peak • S: substrate-derived peak

For assay [2], the target named is T2, CLK2 (Homo sapiens, UniProt P49760).
T2 construct: Enzyme activity was measured with off-chip mobility shift assay using purified CLK protein
T2 sequence (P49760 whole entry): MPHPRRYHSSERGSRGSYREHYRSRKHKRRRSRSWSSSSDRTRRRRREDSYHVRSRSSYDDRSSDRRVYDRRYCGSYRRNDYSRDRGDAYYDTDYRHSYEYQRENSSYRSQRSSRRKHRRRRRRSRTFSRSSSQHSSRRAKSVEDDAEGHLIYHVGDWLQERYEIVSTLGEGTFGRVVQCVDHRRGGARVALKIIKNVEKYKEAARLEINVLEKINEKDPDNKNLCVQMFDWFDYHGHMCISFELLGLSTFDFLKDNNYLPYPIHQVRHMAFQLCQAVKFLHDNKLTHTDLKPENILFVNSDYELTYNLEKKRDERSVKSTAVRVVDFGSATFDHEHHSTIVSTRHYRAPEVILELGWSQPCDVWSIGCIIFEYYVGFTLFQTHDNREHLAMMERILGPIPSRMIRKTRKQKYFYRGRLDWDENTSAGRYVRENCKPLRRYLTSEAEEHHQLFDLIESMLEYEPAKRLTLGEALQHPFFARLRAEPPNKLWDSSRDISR
The assay is described as above. Particulars: at 1 μM; read-out: CLK2 inhibitory activity. It counts as biochemical. As to the method: (§2) Enzyme activity was measured with off-chip mobility shift assay using purified CLK protein. DYRKtide-F peptide (1 μM) was used as a substrate, and a composition of a reaction solution used was as follows (20 mM HEPES (pH7.5), 0.01% Triton X-100, 1 mM DT7, 1% DMSO, and ATP (10 μM for CLK1, 150 μM for CLK2, and 75 μM for CLK3)). The enzyme reaction was performed at room temperature for 1 hour, and the reaction was terminated by adding QuickScout Screening Assist MSA (Carna Biosciences, Inc.). A substrate peptide and a phosphorylated peptide in the enzyme reaction solution were separated and quantified using the LabChip system (Perkin-Elmer, Waltham, MA, USA), and inhibition of CLK was evaluated by calculating a product ratio using the following formula, the substrate peptide peak height (S), and the phosphorylated peptide peak height (P).
as §1

For assay [3], the target named is T3, CLK3 (Homo sapiens, UniProt P49761).
T3 construct: Enzyme activity was measured with off-chip mobility shift assay using purified CLK protein
T3 sequence (P49761 whole entry): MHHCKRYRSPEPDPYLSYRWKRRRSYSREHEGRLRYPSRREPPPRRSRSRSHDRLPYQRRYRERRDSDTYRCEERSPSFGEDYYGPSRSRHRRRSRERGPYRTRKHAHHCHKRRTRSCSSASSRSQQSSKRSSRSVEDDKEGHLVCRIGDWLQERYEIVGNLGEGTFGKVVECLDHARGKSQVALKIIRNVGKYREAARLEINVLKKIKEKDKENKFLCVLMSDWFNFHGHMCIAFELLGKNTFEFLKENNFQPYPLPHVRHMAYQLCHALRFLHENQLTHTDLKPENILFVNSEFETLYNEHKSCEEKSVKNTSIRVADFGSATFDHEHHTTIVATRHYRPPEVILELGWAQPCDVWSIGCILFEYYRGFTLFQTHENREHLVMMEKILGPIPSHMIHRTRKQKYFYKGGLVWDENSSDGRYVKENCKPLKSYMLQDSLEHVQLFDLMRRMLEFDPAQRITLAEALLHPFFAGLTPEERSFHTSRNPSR
The assay is described as above. The settings on record: at 1 μM; read-out: CLK3 inhibitory activity. Format: biochemical. As to the method: as §2, §1

Assay [4] has as its system OAS1 rs10774671 A-allele splicing. The assay can be described thus: RT-PCR for OAS1 alternative splicing profile in Calu-3 (A/A allele) cells. It counts as cell-based, human. Particulars: for yield of the p44a splice form (RT-PCR) / yield of the p44a splice form compared with other compound treatment: Calu-3, 10 μM, 18 hours (Example 2).

Structures are written as SMILES. Entries after “also recorded” stand apart in the source; their conditions may differ.

T1 sequence (P49759 whole entry): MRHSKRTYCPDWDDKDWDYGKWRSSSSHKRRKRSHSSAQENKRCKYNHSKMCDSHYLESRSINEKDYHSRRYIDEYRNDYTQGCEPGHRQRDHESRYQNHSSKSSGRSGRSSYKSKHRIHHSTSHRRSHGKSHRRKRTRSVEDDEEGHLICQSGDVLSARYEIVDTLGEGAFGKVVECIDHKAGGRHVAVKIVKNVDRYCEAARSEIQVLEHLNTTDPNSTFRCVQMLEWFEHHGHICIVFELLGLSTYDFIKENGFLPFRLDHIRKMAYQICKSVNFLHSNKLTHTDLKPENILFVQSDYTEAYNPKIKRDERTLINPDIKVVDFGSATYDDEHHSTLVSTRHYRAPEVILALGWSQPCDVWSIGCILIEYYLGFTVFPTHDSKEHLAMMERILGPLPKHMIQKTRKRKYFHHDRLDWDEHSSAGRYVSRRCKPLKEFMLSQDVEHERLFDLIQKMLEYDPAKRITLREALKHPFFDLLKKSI

Turning to `c1cncc(-c2ccc3[nH]ncc3c2)c1` [compound 2, 5-pyridin-3-yl-1H-indazole], the inhibition at 1 µM in assay [1] was 98.4%; in assay [2], 90.5%; in assay [3], 21.6%. Further, the “yield of the p44a splice form (RT-PCR)” value in assay [4] is reported as “increased the yield of the p44a splice form”. Besides, the “yield of the p44a splice form compared with other compound treatment” value in assay [4] is on record as “higher than that in the compound 1 treatment”.

As to `CCN1/C(=C/C(C)=O)Sc2ccc3occc3c21` [compound 3, 1-(1-ethylfuro[3,2-e][1,3]benzothiazol-2-ylidene)propan-2-one], the inhibition at 1 µM stood at 102% in assay [1], 96.5% in assay [2] and 32.9% in assay [3]. For the same compound, the “yield of the p44a splice form (RT-PCR)” value in assay [4] is listed as “increased the yield of the p44a splice form”. In assay [4], the “yield of the p44a splice form compared with other compound treatment” value is recorded as “higher than that in the compound 1 treatment; also recorded: higher than that in the compound 2 treatment”.

As to `CCN1/C(=C/C(C)=O)Sc2ccc(OC)cc21` [compound 4, 1-(3-ethyl-5-methoxy-1,3-benzothiazol-2-ylidene)propan-2-one, reference compound], the “yield of p44a splice form (RT-PCR)” value in assay [4] (Calu-3, 10 μM or 30 μM, 18 hours (Example 3)) was “increased the yield of p44a splice form”.
